According to US12637414B2, “Arylamides and methods of use thereof” (Genzyme Corporation, priority 2019, dated 2026):

Biological target: T1, human Cystic Fibrosis Transmembrane Conductance Regulator (CFTR) harboring the ΔF508 mutation (Homo sapiens, UniProt P13569, DEL508-508)
T1 construct: expressed in transfected cells; host or cells: H441 carcinoma line (G418 selection)
Assay: H441 cell Emax and EC50: HRP-tagged ΔF508-CFTR cell surface luminescence assay
Type: cell-based
Settings: H441 cells expressing ΔF508-CFTR-HRP, 27° C., two nights; for EC50: 15-point dose-response, top 24.5 μM; for Emax: NCI-H441, % of maximum VX809 signal
Method in brief: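 Cells express ΔF508-CFTR carrying an HRP tag in extracellular loop 4 (CMV promoter); ~10K cells/well treated with a 15-point series from 24.5 µM and incubated two nights at 27° C. Surface CFTR read by luminescence from HRP substrate. EC50 and Emax given relative to maximal VX809 (260 µM stock) signal.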

T1 sequence (P13569 with tags, fused parts or gaps DEL508-508): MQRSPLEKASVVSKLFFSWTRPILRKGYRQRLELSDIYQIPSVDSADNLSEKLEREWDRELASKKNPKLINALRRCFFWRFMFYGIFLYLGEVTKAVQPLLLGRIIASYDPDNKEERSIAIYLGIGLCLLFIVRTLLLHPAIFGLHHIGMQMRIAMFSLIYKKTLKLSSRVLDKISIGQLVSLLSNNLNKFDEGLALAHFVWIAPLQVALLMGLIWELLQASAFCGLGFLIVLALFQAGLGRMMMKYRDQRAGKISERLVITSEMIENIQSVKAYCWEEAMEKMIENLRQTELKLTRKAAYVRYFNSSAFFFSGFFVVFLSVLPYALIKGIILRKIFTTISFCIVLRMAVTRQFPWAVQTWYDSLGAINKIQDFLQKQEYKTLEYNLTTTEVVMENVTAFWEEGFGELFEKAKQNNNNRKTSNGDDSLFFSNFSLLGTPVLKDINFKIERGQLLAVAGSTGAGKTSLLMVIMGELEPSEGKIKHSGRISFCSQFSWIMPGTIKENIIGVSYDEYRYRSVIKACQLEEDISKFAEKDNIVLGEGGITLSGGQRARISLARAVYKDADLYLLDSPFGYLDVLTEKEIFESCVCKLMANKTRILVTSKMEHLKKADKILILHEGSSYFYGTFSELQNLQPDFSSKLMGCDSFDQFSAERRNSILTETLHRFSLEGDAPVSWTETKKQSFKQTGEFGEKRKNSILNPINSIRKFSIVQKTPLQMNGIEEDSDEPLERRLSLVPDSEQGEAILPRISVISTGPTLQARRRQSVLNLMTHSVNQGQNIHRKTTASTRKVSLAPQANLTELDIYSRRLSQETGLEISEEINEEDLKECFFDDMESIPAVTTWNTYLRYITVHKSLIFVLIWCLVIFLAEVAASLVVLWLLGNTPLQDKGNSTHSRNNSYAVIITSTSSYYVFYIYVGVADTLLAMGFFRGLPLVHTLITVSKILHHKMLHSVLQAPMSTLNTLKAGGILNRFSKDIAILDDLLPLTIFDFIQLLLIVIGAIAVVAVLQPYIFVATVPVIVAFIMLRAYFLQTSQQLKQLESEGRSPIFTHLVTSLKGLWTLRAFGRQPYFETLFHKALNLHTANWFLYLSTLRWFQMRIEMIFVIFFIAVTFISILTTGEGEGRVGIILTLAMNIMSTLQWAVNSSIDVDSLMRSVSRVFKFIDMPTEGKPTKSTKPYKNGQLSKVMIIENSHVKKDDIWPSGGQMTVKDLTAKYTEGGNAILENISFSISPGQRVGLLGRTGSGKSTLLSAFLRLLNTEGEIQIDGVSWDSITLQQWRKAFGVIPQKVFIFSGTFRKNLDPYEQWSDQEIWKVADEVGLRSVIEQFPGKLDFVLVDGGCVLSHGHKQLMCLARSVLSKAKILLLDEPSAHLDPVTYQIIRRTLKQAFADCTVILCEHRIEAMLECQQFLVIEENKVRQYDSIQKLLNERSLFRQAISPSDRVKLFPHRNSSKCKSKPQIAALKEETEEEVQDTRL

Structure (SMILES)	EC50	Emax
O=C(N[C@H](C(=O)O)C12CC3CC(CC(C3)C1)C2)c1ccc2sccc2c1OCc1nc(C(F)(F)F)cs1 [compound 115, (2S)-2-(1-adamantyl)-2-[[4-[[4-(trifluoromethyl)thiazol-2-yl]methoxy]benzothiophene-5-carbonyl]amino]acetic acid]	2840 nM	106%
O=C(N[C@H](C(=O)O)C12CC3CC(CC(C3)C1)C2)c1ccc2occc2c1OCC1CCCCC1 [compound 116, (2S)-2-(1-adamantyl)-2-[[4-(cyclohexylmethoxy)benzofuran-5-carbonyl]amino]acetic acid]	1770 nM	212%
O=C(O)[C@@H](N1CN(Cc2ccc(OC(F)(F)F)cc2)c2c(ccc3ccccc23)C1=O)C12CC3CC(CC(O)(C3)C1)C2 [compound 119]	614 nM	71%
O=C(N[C@H](C(=O)O)C12CC3CC(CC(C3)C1)C2)c1ccc2occc2c1OCc1ccc(Cl)c(Cl)c1 [compound 120, (2S)-2-(1-adamantyl)-2-[[4-[(3,4-dichlorophenyl)methoxy]benzofuran-5-carbonyl]amino]acetic acid]	265 nM	141%
O=C(O)[C@@H](N1CN(Cc2ccc(SC(F)(F)F)cc2)c2c(ccc3ccccc23)C1=O)C12CC3CC(CC(O)(C3)C1)C2 [compound 121, (2S)-2-(3-hydroxy-1-adamantyl)-2-[4-oxo-1-[[4-(trifluoromethylsulfanyl)phenyl]methyl]-2H-benzo[h]quinazolin-3-yl]acetic acid]	1630 nM	56.5%
O=C(N[C@H](C(=O)O)C12CC3CC(CC(C3)C1)C2)c1ccc2occc2c1OCc1nc2ccccc2s1 [compound 122, (2S)-2-(1-adamantyl)-2-[[4-(1,3-benzothiazol-2-ylmethoxy)benzofuran-5-carbonyl]amino]acetic acid]	1510 nM	171%
O=C(O)[C@@H](N1CN(Cc2ccc(C(F)(F)F)cc2)c2c(ccc3ccccc23)C1=O)C12CC3CC(CC(C3)C1)C2 [compound 125, (2S)-2-(1-adamantyl)-2-[4-oxo-1-[[4-(trifluoromethyl)phenyl]methyl]-2H-benzo[h]quinazolin-3-yl]acetic acid]	109 nM	66%

Next, values leading:

EC50	Emax	Structure (SMILES)
465 nM	119%	O=C(N[C@H](C(=O)O)C12CC3CC(CC(C3)C1)C2)c1ccc2sccc2c1OCc1ccc(S(F)(F)(F)(F)F)cc1 [compound 114]
172 nM	160%	O=C(N[C@H](C(=O)O)C12CC3CC(CC(C3)C1)C2)c1ccn2cccc2c1OCc1ccc(C(F)(F)F)cc1 [compound 117, (2S)-2-(1-adamantyl)-2-[[8-[[4-(trifluoromethyl)phenyl]methoxy]indolizine-7-carbonyl]amino]acetic acid]
280 nM	141%	O=C(N[C@H](C(=O)O)C12CC3CC(CC(C3)C1)C2)c1ccn2cccc2c1OCc1ccc(OC(F)(F)F)cc1 [compound 118, (2S)-2-(1-adamantyl)-2-[[8-[[4-(trifluoromethoxy)phenyl]methoxy]indolizine-7-carbonyl]amino]acetic acid; 2,2,2-trifluoroacetic acid]
278 nM	51.9%	O=C(N[C@H](C(=O)O)C12CC3CC(CC(C3)C1)C2)c1ccc2ccccc2c1NCc1ccc(SC(F)(F)F)cc1 [compound 123, (2S)-2-(1-adamantyl)-2-[[1-[[4-(trifluoromethylsulfanyl)phenyl]methylamino]naphthalene-2-carbonyl]amino]acetic acid]
471 nM	116%	O=C(N[C@H](C(=O)O)C12CC3CC(CC(C3)C1)C2)c1ccc2occc2c1OCc1ccc(OC(F)(F)F)cc1 [compound 124, (2S)-2-(1-adamantyl)-2-[[4-[[4-(trifluoromethoxy)phenyl]methoxy]benzofuran-5-carbonyl]amino]acetic acid]
